Measurements from ChEMBL document CHEMBL3400105, “Discovery of novel pyrazolopyrimidinone analogs as potent inhibitors of phosphodiesterase type-5” (Bioorg Med Chem, 2015).
Values after ≈ are worked out from the molar mass of the structure shown.

How the values were obtained:
[1] = molecular target: T1, cGMP-specific 3',5'-cyclic phosphodiesterase (Homo sapiens, UniProt O76074)
[2] = AUC (0 to infinity) in Balbc mouse at 1 mg/kg, iv; assay type: ADME, organism-based; set-up: time infinity, dose 1 mg/kg, route intravenous; details: plasma
[3] = AUC (0 to infinity) in Balbc mouse at 1 mg/kg, ip; assay type: ADME, organism-based; set-up: time infinity, dose 1 mg/kg, route intraperitoneal; details: plasma
CYP3A4 = CYP3A4 (Homo sapiens, UniProt P08684); assay: Inhibition of CYP3A4 (unknown origin) at 10 uM; assay type: ADME
[4] = Solubility in simulated gastric fluid; assay type: ADME, Stomach
[5] = Solubility in PBS; assay type: physicochemical
[6] = molecular target: Dual specificity calcium/calmodulin-dependent 3',5'-cyclic nucleotide phosphodiesterase 1A (Homo sapiens, UniProt P54750); assay: Inhibition of PDE1A1 (unknown origin) using fluorescently labeled cAMP substrate by fluorescence polarization assay
[7] = molecular target: cGMP-inhibited 3',5'-cyclic phosphodiesterase 3A (Homo sapiens, UniProt Q14432); assay: Inhibition of PDE3A (unknown origin) using fluorescently labeled cAMP substrate by fluorescence polarization assay
[8] = Solubility in water; assay type: physicochemical
[9] = Metabolic stability in mouse liver microsomes assessed as metabolized drug; assay type: ADME; details: read-out: Drug metabolism
[10] = molecular target: High affinity cGMP-specific 3',5'-cyclic phosphodiesterase 9A (Homo sapiens, UniProt O76083); assay: Inhibition of GST-tagged recombinant human PDE9A2
[11] = Fraction unbound in whole blood (unknown origin); assay type: ADME, tissue-based
[12] = molecular target: Dual 3',5'-cyclic-AMP and -GMP phosphodiesterase 11A (Homo sapiens, UniProt Q9HCR9); assay: Inhibition of GST-tagged recombinant human PDE11A4
[13] = Tmax in Balbc mouse at 1 mg/kg, ip; assay type: ADME, organism-based; set-up: dose 1 mg/kg, route intraperitoneal; details: in vivo
[14] = Plasma protein binding (unknown origin); assay type: ADME, cell-free; details: read-out: PPB (converted)
[15] = Apparent oral volume of distribution in Swiss mouse at 10 mg/kg, po; assay type: ADME, organism-based; set-up: dose 10 mg/kg, route oral; details: in vivo
CYP2C9 = CYP2C9 (Homo sapiens, UniProt P11712); assay: Inhibition of CYP2C9 (unknown origin) at 10 uM; assay type: ADME
[16] = Dissociation constant, pKa of the compound; assay type: physicochemical
[17] = Tmax in Swiss mouse at 10 mg/kg, po; assay type: ADME, organism-based; set-up: dose 10 mg/kg, route oral; details: in vivo
[18] = molecular target: cAMP and cAMP-inhibited cGMP 3',5'-cyclic phosphodiesterase 10A (Homo sapiens, UniProt Q9Y233); assay: Inhibition of PDE10A1 (unknown origin) using fluorescently labeled cAMP substrate by fluorescence polarization assay
[19] = Passive permeability across basolateral to apical side in human Caco2 cells; assay type: ADME, cell-based; details: Caco-2, read-out: permeability
[20] = Lipophilicity, log P of the compound; assay type: physicochemical; details: octanol/water
[21] = Solubility in simulated intestinal fluid; assay type: ADME
[22] = AUC (0 to time) in Balbc mouse at 1 mg/kg, iv; assay type: ADME, organism-based; set-up: dose 1 mg/kg, route intravenous; details: plasma
[23] = Lipophilicity, log D of the compound; assay type: physicochemical; details: octanol/water
[24] = AUC (0 to time) in Swiss mouse at 10 mg/kg, po; assay type: ADME, organism-based; set-up: dose 10 mg/kg, route oral; details: plasma
[25] = molecular target: Cone cGMP-specific 3',5'-cyclic phosphodiesterase subunit alpha' (Homo sapiens, UniProt P51160); assay: Inhibition of PDE6C (unknown origin)
[26] = molecular target: High affinity 3',5'-cyclic-AMP phosphodiesterase 7A (Homo sapiens, UniProt Q13946); assay: Inhibition of GST-tagged recombinant human PDE7A1
[27] = AUC (0 to infinity) in Swiss mouse at 10 mg/kg, po; assay type: ADME, organism-based; set-up: time infinity, dose 10 mg/kg, route oral; details: plasma
[28] = Apparent oral clearance in Swiss mouse at 10 mg/kg, po; assay type: ADME, organism-based; set-up: dose 10 mg/kg, route oral; details: in vivo
[29] = Cmax in Balbc mouse at 1 mg/kg, iv; assay type: ADME, organism-based; set-up: dose 1 mg/kg, route intravenous; details: in vivo
[30] = molecular target: T1, cGMP-specific 3',5'-cyclic phosphodiesterase; assay: Inhibition of PDE5A1 (unknown origin)
[31] = molecular target: cGMP-dependent 3',5'-cyclic phosphodiesterase (Homo sapiens, UniProt O00408); assay: Inhibition of PDE2A1 (unknown origin) using fluorescently labeled cAMP substrate by fluorescence polarization assay
in vitro = details: human, Caco-2
[32] = Cmax in Swiss mouse at 10 mg/kg, po; assay type: ADME, organism-based; set-up: dose 10 mg/kg, route oral; details: in vivo
[33] = Passive permeability across apical to basolateral side in human Caco2 cells; assay type: ADME, cell-based
[34] = molecular target: 3',5'-cyclic-AMP phosphodiesterase 4A (Homo sapiens, UniProt P27815); assay: Inhibition of PDE4A1 (unknown origin) using fluorescently labeled cAMP substrate by fluorescence polarization assay
[35] = AUC (0 to time) in Balbc mouse at 1 mg/kg, ip; assay type: ADME, organism-based; set-up: dose 1 mg/kg, route intraperitoneal; details: plasma
[36] = molecular target: High affinity cAMP-specific and IBMX-insensitive 3',5'-cyclic phosphodiesterase 8A (Homo sapiens, UniProt O60658); assay: Inhibition of GST-tagged recombinant human PDE8A1
[37] = Apparent oral volume of distribution in Balbc mouse at 1 mg/kg, iv; assay type: ADME, organism-based; set-up: dose 1 mg/kg, route oral; details: in vivo
[38] = Cmax in Balbc mouse at 1 mg/kg, ip; assay type: ADME, organism-based; set-up: dose 1 mg/kg, route intraperitoneal; details: in vivo
Oryctolagus cuniculus = assay: Induction of penile erection in conscious rabbit model assessed as area under curve of length of uncovered penile mucosa at 3 mg/kg, iv into ear vain
[39] = Half life in Swiss mouse at 10 mg/kg, po; assay type: ADME, organism-based; set-up: dose 10 mg/kg, route oral; details: in vivo
[40] = Apparent oral clearance in Balbc mouse at 1 mg/kg, iv; assay type: ADME, organism-based; set-up: dose 1 mg/kg, route oral; details: in vivo
Plasma = assay: Initial plasma concentration in Swiss mouse at 10 mg/kg, po; assay type: ADME, organism-based; set-up: dose 10 mg/kg, route oral; details: in vivo

Dual specificity calcium/calmodulin-dependent 3',5'-cyclic nucleotide phosphodiesterase 1A, sequence (P54750 whole entry): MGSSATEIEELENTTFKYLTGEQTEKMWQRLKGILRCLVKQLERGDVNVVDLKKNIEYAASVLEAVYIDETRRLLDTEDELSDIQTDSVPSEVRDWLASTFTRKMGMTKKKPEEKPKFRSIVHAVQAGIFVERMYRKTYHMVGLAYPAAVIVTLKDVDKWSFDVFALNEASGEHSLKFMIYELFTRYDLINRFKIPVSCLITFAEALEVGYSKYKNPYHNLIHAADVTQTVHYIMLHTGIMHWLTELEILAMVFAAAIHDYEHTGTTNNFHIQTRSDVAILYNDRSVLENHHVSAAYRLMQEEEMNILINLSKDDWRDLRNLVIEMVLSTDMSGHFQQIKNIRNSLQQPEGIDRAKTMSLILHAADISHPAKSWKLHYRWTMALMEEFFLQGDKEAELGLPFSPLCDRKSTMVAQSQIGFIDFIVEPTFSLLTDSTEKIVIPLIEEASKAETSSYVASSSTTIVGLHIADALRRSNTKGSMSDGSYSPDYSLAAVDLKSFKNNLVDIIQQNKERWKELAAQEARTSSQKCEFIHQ
High affinity 3',5'-cyclic-AMP phosphodiesterase 7A, sequence (Q13946 whole entry): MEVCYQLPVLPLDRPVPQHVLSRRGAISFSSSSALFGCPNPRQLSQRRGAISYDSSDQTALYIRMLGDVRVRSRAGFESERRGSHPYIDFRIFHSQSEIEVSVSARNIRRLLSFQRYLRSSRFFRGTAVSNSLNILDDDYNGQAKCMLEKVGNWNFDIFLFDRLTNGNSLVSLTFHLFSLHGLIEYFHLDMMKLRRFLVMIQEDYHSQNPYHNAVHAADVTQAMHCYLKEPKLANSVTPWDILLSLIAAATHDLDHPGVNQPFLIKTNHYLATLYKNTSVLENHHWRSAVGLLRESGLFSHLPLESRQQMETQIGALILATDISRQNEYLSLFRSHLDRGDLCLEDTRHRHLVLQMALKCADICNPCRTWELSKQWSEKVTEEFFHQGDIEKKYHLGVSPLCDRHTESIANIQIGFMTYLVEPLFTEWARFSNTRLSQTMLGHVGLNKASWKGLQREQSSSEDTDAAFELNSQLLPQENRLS
High affinity cGMP-specific 3',5'-cyclic phosphodiesterase 9A, sequence (O76083 whole entry): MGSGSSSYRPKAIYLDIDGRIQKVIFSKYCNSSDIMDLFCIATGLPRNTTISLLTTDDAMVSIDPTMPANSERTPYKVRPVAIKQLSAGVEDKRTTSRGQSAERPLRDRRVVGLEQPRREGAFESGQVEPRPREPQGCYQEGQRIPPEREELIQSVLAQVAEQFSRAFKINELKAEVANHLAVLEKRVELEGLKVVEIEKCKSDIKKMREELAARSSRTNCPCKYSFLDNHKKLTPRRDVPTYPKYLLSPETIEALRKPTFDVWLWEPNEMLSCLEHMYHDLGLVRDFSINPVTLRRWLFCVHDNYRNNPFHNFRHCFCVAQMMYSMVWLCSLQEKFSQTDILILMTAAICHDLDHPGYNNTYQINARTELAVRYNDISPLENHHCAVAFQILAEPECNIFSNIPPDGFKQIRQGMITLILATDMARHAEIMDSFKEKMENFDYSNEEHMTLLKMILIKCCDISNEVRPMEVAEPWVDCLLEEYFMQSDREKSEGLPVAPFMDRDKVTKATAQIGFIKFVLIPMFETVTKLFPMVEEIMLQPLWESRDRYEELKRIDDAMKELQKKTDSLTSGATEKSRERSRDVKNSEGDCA
cAMP and cAMP-inhibited cGMP 3',5'-cyclic phosphodiesterase 10A, sequence (Q9Y233 whole entry): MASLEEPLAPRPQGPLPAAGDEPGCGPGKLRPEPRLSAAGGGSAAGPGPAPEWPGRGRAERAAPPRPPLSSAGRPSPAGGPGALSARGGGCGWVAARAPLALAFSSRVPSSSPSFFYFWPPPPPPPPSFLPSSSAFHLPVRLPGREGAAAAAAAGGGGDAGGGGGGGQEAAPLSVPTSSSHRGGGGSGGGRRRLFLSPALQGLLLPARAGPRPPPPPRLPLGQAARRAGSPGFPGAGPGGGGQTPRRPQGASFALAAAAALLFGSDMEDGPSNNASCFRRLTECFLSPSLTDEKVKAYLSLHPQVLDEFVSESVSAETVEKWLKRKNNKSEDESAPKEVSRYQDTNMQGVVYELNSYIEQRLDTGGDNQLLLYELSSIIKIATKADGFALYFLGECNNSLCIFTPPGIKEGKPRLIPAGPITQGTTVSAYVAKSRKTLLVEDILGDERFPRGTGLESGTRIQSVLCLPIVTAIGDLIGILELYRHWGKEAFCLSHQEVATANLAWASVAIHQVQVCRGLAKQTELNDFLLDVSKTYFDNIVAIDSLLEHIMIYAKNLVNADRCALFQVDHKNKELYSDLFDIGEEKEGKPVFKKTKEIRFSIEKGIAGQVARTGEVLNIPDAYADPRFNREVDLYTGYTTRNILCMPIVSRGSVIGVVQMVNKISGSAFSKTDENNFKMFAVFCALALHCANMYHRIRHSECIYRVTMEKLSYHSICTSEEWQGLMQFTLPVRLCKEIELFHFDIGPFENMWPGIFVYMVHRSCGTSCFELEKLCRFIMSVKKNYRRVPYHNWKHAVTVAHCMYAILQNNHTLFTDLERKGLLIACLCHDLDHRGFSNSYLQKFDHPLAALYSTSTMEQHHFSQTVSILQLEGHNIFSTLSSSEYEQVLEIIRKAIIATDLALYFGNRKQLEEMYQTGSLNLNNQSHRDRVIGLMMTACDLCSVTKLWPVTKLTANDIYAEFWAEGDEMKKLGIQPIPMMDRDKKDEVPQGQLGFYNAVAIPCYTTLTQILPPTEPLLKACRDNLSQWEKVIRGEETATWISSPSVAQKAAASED
CYP3A4, sequence (P08684 whole entry): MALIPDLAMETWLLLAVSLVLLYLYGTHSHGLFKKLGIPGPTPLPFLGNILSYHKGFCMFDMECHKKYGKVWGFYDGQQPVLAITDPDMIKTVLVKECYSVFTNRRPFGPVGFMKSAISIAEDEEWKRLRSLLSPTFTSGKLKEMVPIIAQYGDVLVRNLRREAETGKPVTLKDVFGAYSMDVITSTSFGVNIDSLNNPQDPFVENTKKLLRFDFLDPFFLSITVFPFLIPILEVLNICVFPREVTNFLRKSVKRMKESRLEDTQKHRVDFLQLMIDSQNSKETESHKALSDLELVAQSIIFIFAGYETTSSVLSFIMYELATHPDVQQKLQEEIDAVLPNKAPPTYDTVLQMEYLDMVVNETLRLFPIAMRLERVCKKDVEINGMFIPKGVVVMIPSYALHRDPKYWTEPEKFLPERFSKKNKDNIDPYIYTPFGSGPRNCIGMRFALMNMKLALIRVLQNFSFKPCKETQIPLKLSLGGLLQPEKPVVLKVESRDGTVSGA
cGMP-inhibited 3',5'-cyclic phosphodiesterase 3A, sequence (Q14432 whole entry): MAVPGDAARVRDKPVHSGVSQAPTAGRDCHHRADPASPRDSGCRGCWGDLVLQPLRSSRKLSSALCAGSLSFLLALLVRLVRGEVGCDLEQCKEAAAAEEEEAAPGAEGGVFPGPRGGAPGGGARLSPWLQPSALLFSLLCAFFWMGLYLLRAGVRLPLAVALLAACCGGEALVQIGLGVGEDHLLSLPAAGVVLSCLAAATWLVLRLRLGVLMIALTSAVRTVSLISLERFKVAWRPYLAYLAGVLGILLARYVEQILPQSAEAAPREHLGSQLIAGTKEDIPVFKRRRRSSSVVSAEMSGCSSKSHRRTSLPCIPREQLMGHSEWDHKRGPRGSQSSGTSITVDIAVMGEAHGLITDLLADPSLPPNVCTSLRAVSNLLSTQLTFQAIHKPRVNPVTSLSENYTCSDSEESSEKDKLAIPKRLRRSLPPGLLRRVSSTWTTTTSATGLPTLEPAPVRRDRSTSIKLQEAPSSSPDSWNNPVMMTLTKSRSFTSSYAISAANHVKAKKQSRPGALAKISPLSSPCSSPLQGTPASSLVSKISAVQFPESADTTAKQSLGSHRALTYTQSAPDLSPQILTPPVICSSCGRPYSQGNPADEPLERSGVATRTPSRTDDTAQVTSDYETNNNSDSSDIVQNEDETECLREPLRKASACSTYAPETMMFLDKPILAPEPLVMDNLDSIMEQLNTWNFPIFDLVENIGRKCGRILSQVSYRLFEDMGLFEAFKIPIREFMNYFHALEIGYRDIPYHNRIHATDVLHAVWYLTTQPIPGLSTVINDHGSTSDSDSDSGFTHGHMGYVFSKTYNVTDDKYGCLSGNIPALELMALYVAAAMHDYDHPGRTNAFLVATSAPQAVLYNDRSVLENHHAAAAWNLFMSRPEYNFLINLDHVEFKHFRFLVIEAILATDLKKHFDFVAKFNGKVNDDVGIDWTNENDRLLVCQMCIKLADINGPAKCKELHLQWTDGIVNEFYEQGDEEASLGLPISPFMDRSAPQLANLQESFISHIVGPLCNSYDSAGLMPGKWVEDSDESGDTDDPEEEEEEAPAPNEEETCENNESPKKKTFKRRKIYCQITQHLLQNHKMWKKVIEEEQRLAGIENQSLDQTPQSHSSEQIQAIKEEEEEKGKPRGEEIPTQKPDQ
CYP2C9, sequence (P11712 whole entry): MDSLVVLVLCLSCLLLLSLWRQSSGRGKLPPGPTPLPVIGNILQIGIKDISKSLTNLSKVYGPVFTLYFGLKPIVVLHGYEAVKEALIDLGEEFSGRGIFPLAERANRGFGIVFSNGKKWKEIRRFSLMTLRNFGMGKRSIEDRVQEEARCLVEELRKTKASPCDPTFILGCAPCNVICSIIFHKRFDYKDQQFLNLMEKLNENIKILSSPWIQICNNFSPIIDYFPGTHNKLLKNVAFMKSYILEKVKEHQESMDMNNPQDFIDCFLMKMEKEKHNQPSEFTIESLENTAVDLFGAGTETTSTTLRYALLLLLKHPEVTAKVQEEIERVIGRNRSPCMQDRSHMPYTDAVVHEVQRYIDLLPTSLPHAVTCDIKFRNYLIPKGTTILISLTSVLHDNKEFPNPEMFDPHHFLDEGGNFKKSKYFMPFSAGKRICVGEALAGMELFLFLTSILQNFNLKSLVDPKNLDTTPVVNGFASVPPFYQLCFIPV

CCCc1nn(C)c2c(=O)[nH]c(-c3cc(S(=O)(=O)NCCCCCO)ccc3OCC)nc12
IC50 [1]: 0.0017 µM

CCCc1nn(C)c2c(=O)[nH]c(-c3cc(S(=O)(=O)NCc4ccc(OC)c(F)c4)ccc3OCC)nc12
IC50 [1]: 0.0033 µM

CCCCCCNS(=O)(=O)c1ccc(OCC)c(-c2nc3c(CCC)nn(C)c3c(=O)[nH]2)c1
IC50 [1]: 0.012 µM

CCCc1nn(C)c2c(=O)[nH]c(-c3cc(S(=O)(=O)NCCN4CCCCC4)ccc3OCC)nc12
IC50 [1]: 0.016 µM

CCCc1nn(C)c2c(=O)[nH]c(-c3cc(S(=O)(=O)NCCCCCCO)ccc3OCC)nc12
AUC(0-inf) [2]: 81.8 ng·h/mL
AUC(0-inf) [3]: 71 ng·h/mL
inhibition at 10 µM (CYP3A4): 50%
solubility [4]: 80 µM (≈ 39.3 µg/mL)
solubility [5]: 20 µM (≈ 9.83 µg/mL)
IC50 [6]: 0.062 µM
IC50 [7]: > 10 µM
solubility [8]: 20 µM (≈ 9.83 µg/mL)
metabolised [9]: > 95%
IC50 [10]: 3.8 µM
fraction unbound [11]: 0.023
IC50 [12]: 1.4 µM
Tmax [13]: 30 min
IC50 [1]: 0.0015 µM
fraction unbound [14]: 0.023
Vd/F [15]: 76.8 L/kg
inhibition at 10 µM (CYP2C9): 56%
pKa [16]: 5.22
Tmax [17]: 4.98 min
IC50 [18]: 2 µM
Papp B→A [19]: 54.4 ×10⁻⁶ cm/s
logP [20]: 2.73
solubility [21]: 10 µM (≈ 4.92 µg/mL)
AUC [22]: 80 ng·h/mL
logD [23]: 2.73
AUC [24]: 134 ng·h/mL
IC50 [25]: 0.0052 µM
IC50 ([26]; read-out: IC50): > 10 µM
AUC(0-inf) [27]: 156 ng·h/mL
CL/F [28]: 1070 mL/min/kg
Cmax [29]: 221 ng/mL
IC50 [30]: 0.0015 µM
IC50 [31]: 0.56 µM
efflux ratio (in vitro): 6
Cmax [32]: 380 ng/mL
Papp A→B ([33]; Caco-2, read-out: permeability): 9.1 ×10⁻⁶ cm/s
IC50 [34]: 3.7 µM
AUC [35]: 69.4 ng·h/mL
IC50 [36]: > 10 µM
Vd/F [37]: 1.65 L/kg
Cmax [38]: 105 ng/mL
AUC (Oryctolagus cuniculus): 432
half-life [39]: 48 min
CL/F [40]: 204 mL/min/kg
C0 (Plasma): 556 ng/mL

CCCc1nn(C)c2c(=O)[nH]c(-c3cc(S(=O)(=O)NCCCN4CCOCC4)ccc3OCC)nc12
IC50 [1]: 0.0026 µM

CCCc1nn(C)c2c(=O)[nH]c(-c3cc(S(=O)(=O)NCCc4c[nH]c5ccccc45)ccc3OCC)nc12
IC50 [1]: 0.013 µM

CCCc1nn(C)c2c(=O)[nH]c(-c3cc(S(=O)(=O)NCCCN(C)C)ccc3OCC)nc12
IC50 [1]: 0.014 µM

CCCc1nn(C)c2c(=O)[nH]c(-c3cc(S(=O)(=O)NCCN(CC)CC)ccc3OCC)nc12
IC50 [1]: 0.032 µM

CCCCCCCNS(=O)(=O)c1ccc(OCC)c(-c2nc3c(CCC)nn(C)c3c(=O)[nH]2)c1
IC50 [1]: 0.0039 µM

CCCc1nn(C)c2c(=O)[nH]c(-c3cc(S(=O)(=O)NCCCCO)ccc3OCC)nc12
IC50 [1]: 0.0019 µM

CCCc1nn(C)c2c(=O)[nH]c(-c3cc(S(=O)(=O)NCCCO)ccc3OCC)nc12
IC50 [1]: 0.0034 µM

CCCc1nn(C)c2c(=O)[nH]c(-c3cc(S(=O)(=O)NCCN4CCOCC4)ccc3OCC)nc12
IC50 [1]: 0.0016 µM

CCCc1nn(C)c2c(=O)[nH]c(-c3cc(S(=O)(=O)N4CCN(C)CC4)ccc3OCC)nc12
IC50 [6]: 0.6 µM
metabolised [9]: 90%
fraction unbound [11]: 0.066
fraction unbound [14]: 0.04
pKa [16]: 4.86
Papp B→A [19]: 45.5 ×10⁻⁶ cm/s
logP [20]: 2.58
logD [23]: 2.69
IC50 [26]: 22 µM
permeability ([33]; Caco-2): 37.9 ×10⁻⁶ cm/s
AUC (Oryctolagus cuniculus): 305
